US12583825B2, “Benzo[h]quinazolin-4-amine and thieno[3,2-h]quinazolin-4-amine derivatives for the treatment of cancer” (Redona Therapeutics, Inc., priority 2020, dated 2026)

Legend:
[1] = test system: MDA-MB-231 cells; experiment: MDA-MB-231 proliferation assay; type: cell-based; conditions: Homo sapiens, 72 hours, YO-PRO-1 readout
Procedure, shortened: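 Cells seeded at 750/well in DMEM with 10% FBS, treated 72 h at 37 °C, 0.5% DMSO final. Cell number read by YO-PRO-1 fluorescence (485/530 nm), normalised to DMSO (100%) and time-of-addition cells (0%); 4-parameter logistic fit with maximum fixed at 100%.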

[2] = test system: phospho-SRSF6 levels in MDA-MB-468 cells; experiment: Inhibition of phospho-SRSF6 levels in MDA-MB-468 cells (Western blot); type: cell-based; conditions: Homo sapiens, 100 nM, 2 hours, normalized by GAPDH, read-out: % Intensity of p-SRSF6 signal at 100 nM compared to DMSO control
Description: FIG. 1: FIG. 1 provides a representative Western blot showing reduction of phosphorylated-SRSF6 (P-SRSF6) in MDA-MB 468 cells by compounds of the invention. GAPDH was probed for by Western blotting to control for equal protein loading and for normalization of samples. The numbers below the blots show percent intensity of P-SRSF6 signal at 100 nM compared to DMSO control.
Assessment of Inhibition of Phospho-SRSF6 Levels in MDA-MB-468 Cells
MDA-MB-468 cells (ATCC, HTB-132) were cultured in DMEM (BioConcept cat. no. 1-26F03) supplemented with 10% FBS (Sigma cat. no. F9665), 1% Na-pyruvate (Sigma cat. no. S8636), 1% Penicillin-Streptomycin (BioConcept cat. no. 4-01F00-H). When cells reached a density of 70% in 6-well plates (TPP cat. no. 92006), they were treated either with the test compound vehicle DMSO, or with experimental compounds at a final concentration of 100 nM for 2 hours. Thereafter, the culture medium was removed and cells were collected by scraping in Lysis Buffer (20 mM Tris HCl pH7.5, 150 mM NaCl, 1 mM EGTA, 1 mM EDTA, 1% Triton and 1% NP-40) containing protease and phosphatase inhibitors (Halt™ Protease&Phosphatase inhibitor cocktail 100× ThermoScientific cat. no. 1861281) and 1 mM PMSF (Fluka cat. no. 93482). Cleared lysates were stored in Eppendorf tubes at −80° C. until use, and protein concentration in lysates was determined using Pierce 660 nm Protein Assay Reagent (ThermoScientific cat. no. 22660). 20 μg proteins were diluted in 4× Laemmli buffer (Biorad cat. no. 161-0747) containing 10% beta-mercaptoethanol, separated by SDS-PAGE using 10% gels, and then transferred to PVDF membranes (Trans Blot Turbo Transfer Pack BioRad cat. no. 1704156) by Trans-Blot® Turbo™ System semidry blotting methodology (BioRad). Primary antibodies were incubated in TBS-0.1% Tween-20 buffer containing 3% BSA Bovine Albumin Fr.V (Millipore cat. no. 81-053-3) overnight at 4° C. The following primary antibodies were used: Mouse anti-phosphoepitope SR proteins clone 1H4 (Millipore cat. no. MABE50) diluted 1:5000, and rabbit anti-GAPDH clone 14C10 (Cell Signaling cat. no. 2118S) to control for equal protein loading, diluted 1:2000. HRP-conjugated secondary antibodies were incubated one hour at room temperature diluted 1:5000 in TBS-0.1% Tween-20 buffer containing 5% nonfat-dried bovine milk (Sigma cat. no. M7409). The following secondary antibodies were used: Goat anti-mouse-HRP (Jackson cat. no. 115-035-146) and goat anti-rabbit-HRP (Jackson cat. no. 111-035-144). Membranes were incubated with ECL Prime Western Blot Detection Reagent (Amersham cat. no. RPN2236) to detect specific signals using Fusion SOLO S device (Vilber Lourmat). Pixel intensity of the phopsho-SRSF6 (MW 55 kDa in reference to markers) and GAPDH (MW 37 kDa) signals in the Western blots were determined using Evolution-Capt image analysis software (v17.01, Vilber Lourmat). DMSO control was used to set the phospho-SRSF6 signal at baseline, phospho-SRSF6 signals for each sample were normalized by the respective GAPDH signals and percent intensity of P-SRSF6 signal at 100 nM compound compared to DMSO control was calculated (see FIG. 1).

[3] = target: T1, recombinant human CLK3 (Homo sapiens, UniProt P49761); experiment: CLK3 kinase assay (LANCE Ultra); type: biochemical; conditions: 0.5 nM CLK3, 300 μM ATP, 3 hours at 30° C.
T1 construct: purchased Thermo Fisher Scientific PV3826
Procedure, shortened: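 Recombinant human CLK3 (0.5 nM) phosphorylating ULight-CREBtide (50 nM) with 300 μM ATP for 3 h at 30 °C; stopped with EDTA, detected by LANCE Ultra TR-FRET using Eu-anti-phospho-CREB antibody (2 nM, 1 h). IC50 from sigmoidal 4-parameter fit.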

T1 sequence (P49761 whole entry): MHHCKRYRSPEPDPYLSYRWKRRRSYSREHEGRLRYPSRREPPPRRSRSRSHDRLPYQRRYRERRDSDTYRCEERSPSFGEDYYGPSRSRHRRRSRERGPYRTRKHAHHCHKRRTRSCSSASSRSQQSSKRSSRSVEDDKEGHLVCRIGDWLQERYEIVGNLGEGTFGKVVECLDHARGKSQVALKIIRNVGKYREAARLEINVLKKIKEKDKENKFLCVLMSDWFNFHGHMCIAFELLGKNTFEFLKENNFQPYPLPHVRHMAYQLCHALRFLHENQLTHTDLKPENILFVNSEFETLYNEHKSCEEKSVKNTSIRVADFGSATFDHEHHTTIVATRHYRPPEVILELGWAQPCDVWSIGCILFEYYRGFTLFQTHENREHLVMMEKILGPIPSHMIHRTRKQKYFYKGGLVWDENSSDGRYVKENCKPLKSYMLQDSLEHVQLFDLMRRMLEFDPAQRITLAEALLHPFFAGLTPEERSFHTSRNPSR

SMILES	GI50 [1]	activity at 0.1 µM [2]	IC50 [3]
CO/N=C1\c2cc(O[C@H]3CC[C@H](N)CC3)ccc2-c2ncnc(N)c2C1(C)C [Example 1, (6Z)-8-(trans-4-aminocyclohexoxy)-6-methoxyimino-5,5-dimethyl-benzo[h]quinazolin-4-amine]	407 nM	19%	9.1 nM
C=C(c1ccc2c(c1)/C(=N\OC)C(C)(C)c1c(N)ncnc1-2)[C@H]1CC[C@H](N)CC1 [Example 4, (6Z)-8-[1-(trans-4-aminocyclohexyl)vinyl]-6-methoxyimino-5,5-dimethyl-benzo[h]quinazolin-4-amine]	271 nM	32%	2.1 nM
COc1ccc2c(c1)/C(=N\OCCCC#N)C(C)(C)c1c(N)ncnc1-2 [Example 6, 4-[(Z)-(4-amino-8-methoxy-5,5-dimethyl-benzo[h]quinazolin-6-ylidene)amino]oxybutanenitrile]	> 2000 nM	41%	32.1 nM
COc1ccc2c(c1)/C(=N\OC[C@@H]1CNC(=O)O1)C(C)(C)c1c(N)ncnc1-2 [Example 13, (5S)-5-[[(Z)-(4-amino-8-methoxy-5,5-dimethyl-benzo[h]quinazolin-6-ylidene)amino]oxymethyl]oxazolidin-2-one]	1200 nM	28%	4.3 nM
CC1(C)/C(=N/OCCO)c2cc(O[C@H]3CC[C@H](N)CC3)ccc2-c2ncnc(N)c21 [Example 19, 2-[(Z)-[4-amino-8-(trans-4-aminocyclohexoxy)-5,5-dimethyl-benzo[h]quinazolin-6-ylidene]amino]oxyethanol]	445 nM	25%	20.2 nM
C#CCO/N=C1\c2cc(O[C@H]3CC[C@H](N)CC3)ccc2-c2ncnc(N)c2C1(C)C [Example 21, (6Z)-8-(trans-4-aminocyclohexoxy)-5,5-dimethyl-6-prop-2-ynoxyimino-benzo[h]quinazolin-4-amine]	569 nM	12%	27.2 nM
CC1(C)/C(=N/OCCCC#N)c2cc(O[C@H]3CC[C@H](N)CC3)ccc2-c2ncnc(N)c21 [Example 27, 4-[(Z)-[4-amino-8-(trans-4-aminocyclohexoxy)-5,5-dimethyl-benzo[h]quinazolin-6-ylidene]amino]oxybutanenitrile]	269 nM	26%	16.1 nM
CC1(C)/C(=N/OC[C@@H]2CNC(=O)O2)c2cc(O[C@H]3CC[C@H](N)CC3)ccc2-c2ncnc(N)c21 [Example 38, (5S)-5-[[(Z)-[4-amino-8-(trans-4-aminocyclohexoxy)-5,5-dimethyl-benzo[h]quinazolin-6-ylidene]amino]oxymethyl]oxazolidin-2-one]	> 2000 nM	48%	4.16 nM
CO/N=C1\c2cc(OC)ccc2-c2ncnc(N)c2C1(C)C [Example 40, (6Z)-8-methoxy-6-methoxyimino-5,5-dimethyl-benzo[h]quinazolin-4-amine]	> 2000 nM	45%	21.7 nM
CN1C[C@@H](CO/N=C2\c3cc(O[C@H]4CC[C@@H](N)CC4)ccc3-c3ncnc(N)c3C2(C)C)OC1=O [Example 88, (5S)-5-[[(Z)-[4-amino-8-(cis-4-aminocyclohexoxy)-5,5-dimethyl-benzo[h]quinazolin-6-ylidene]amino]oxymethyl]-3-methyl-oxazolidin-2-one]	–	21%	8.8 nM
COCCO/N=C1\c2cc(O[C@H]3CC[C@@H](N)CC3)ccc2-c2ncnc(N)c2C12CCCC2 [Example 100, (6Z)-8-(cis-4-aminocyclohexoxy)-6-(2-methoxyethoxyimino)spiro[benzo[h]quinazoline-5,1′-cyclopentane]-4-amine]	10.5 nM	–	3.7 nM
COCCO/N=C1\c2cc(O[C@H]3CC[C@@](C)(N)CC3)ccc2-c2ncnc(N)c2C1(C)C [Example 103, (6Z)-8-(cis-4-amino-4-methyl-cyclohexoxy)-6-(2-methoxyethoxyimino)-5,5-dimethyl-benzo[h]quinazoline-4-amine]	184 nM	–	28.3 nM
Nc1ncnc2c1C1(CCCC1)/C(=N/O)c1cc(O[C@H]3CC[C@@H](N)CC3)ccc1-2 [Example 104, 4-amino-8-(cis-4-minocyclohexoxy)spiro[benzo[h]quinazoline-5,1′-cyclopentane]-6-one oxime]	41.3 nM	–	10.4 nM
CC1(C)/C(=N/OCCc2ccccc2)c2cc(O[C@H]3CC[C@@H](N)CC3)ccc2-c2ncnc(N)c21 [Example 106, (6Z)-8-(cis-4-aminocyclohexoxy)-5,5-dimethyl-6-(2-phenylethoxyimino)benzo[h]quinazoline-4-amine]	307 nM	–	23.4 nM
CCOCCO/N=C1\c2cc(O[C@H]3CC[C@@H](N)CC3)ccc2-c2ncnc(N)c2C1(C)C [Example 109, (6Z)-8-(cis-4-aminocyclohexoxy)-6-(2-ethoxyethoxyimino)-5,5-dimethyl-benzo[h]quinazoline-4-amine]	156 nM	21%	–
CC1(C)/C(=N/OCCCS(C)(=O)=O)c2cc(O[C@H]3CC[C@@H](N)CC3)ccc2-c2ncnc(N)c21 [Example 110, (6Z)-8-(cis-4-aminocyclohexoxy)-5,5-dimethyl-6-(3-methylsulfonylpropoxyimino)benzo[h]quinazoline-4-amine]	> 2000 nM	–	31.8 nM
CC(C)(C#N)CCO/N=C1\c2cc(O[C@H]3CC[C@@H](N)CC3)ccc2-c2ncnc(N)c2C1(C)C [Example 111, 4-[(Z)-[4-amino-8-(cis-4-aminocyclohexoxy)-5,5-dimethyl-benzo[h]quinazolin-6-ylidene]amino]oxy-2,2-dimethyl-butanenitrile]	106 nM	16%	–
CC1(C)/C(=N/OCCOCC(F)(F)F)c2cc(O[C@H]3CC[C@@H](N)CC3)ccc2-c2ncnc(N)c21 [Example 112, (6Z)-8-(cis-4-aminocyclohexoxy)-5,5-dimethyl-6-[2-(2,2,2-trifluoroethoxy)ethoxyimino]benzo[h]quinazolin-4-amine]	66.2 nM	–	8.8 nM
CC1(C)/C(=N/OCCCCF)c2cc(O[C@H]3CC[C@@H](N)CC3)ccc2-c2ncnc(N)c21 [Example 113, (6Z)-8-(cis-4-aminocyclohexoxy)-6-(4-fluorobutoxyimino)-5,5-dimethyl-benzo[h]quinazolin-4-amine]	167 nM	–	21.2 nM
CC1(C)/C(=N/OCCCC(F)(F)F)c2cc(O[C@H]3CC[C@@H](N)CC3)ccc2-c2ncnc(N)c21 [Example 114, (6Z)-8-(cis-4-aminocyclohexoxy)-5,5-dimethyl-6-(4,4,4-trifluorobutoxyimino)benzo[h]quinazolin-4-amine]	373 nM	–	48.9 nM
CC1(C)/C(=N/OCCC(F)(F)F)c2cc(O[C@H]3CC[C@@H](N)CC3)ccc2-c2ncnc(N)c21 [Example 116, (6Z)-8-(cis-4-aminocyclohexoxy)-5,5-dimethyl-6-(3,3,3-trifluoropropoxyimino)benzo[h]quinazoline-4-amine]	71.7 nM	–	28.9 nM
